Experimental data published in US10815238B2, “Antimicrobial compounds and methods of making and using the same” (BIOVERSYS AG, priority 2013, dated 2020).

Key:
[1] = system: Eschericia coli (E. coli) strain ATCC25922; experiment: Standard microdilution assay, MIC against E. coli ATCC25922; type: cell-based; conditions: Escherichia coli; E. coli strain ATCC25922, standard microdilution assay; cutoff 16 micrograms/mL; read-out: MIC E. Coli
Outline: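 Scoring as + or − used a 16 micrograms/mL cutoff on minimum inhibitory concentrations. These came from CLSI-standard microdilution, quality-controlled with reference strains tested in the same run.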

[2] = system: Staphylococcus aureus (S. aureus) 11540 strain; experiment: Standard microdilution assay, MIC against S. aureus 11540; type: cell-based; conditions: S. aureus 11540 strain, standard microdilution assay, cutoff 16 micrograms/mL, read-out: MIC S. aureus
Procedure: The in vitro activity of the compounds of the present invention can be determined. Antimicrobial testing is typically performed to determine the minimum inhibitory concentration (MIC). Minimum inhibitory concentrations (MICs) are determined by the microdilution method in a final volume of 100 μl according to protocols outlined by The Clinical and Laboratory Standards Institute (CLSI). Performance standards for reference strains are assessed within the same experimental design to maintain quality control. See, for example, Clinical Laboratory Standards Institute: Methods for dilution antimicrobial susceptibility tests for bacteria that grow aerobically M7-A8. Approved Standard-Eighth Edition. Wayne, Pa.: CLSI; December 2008; and Clinical Laboratory Standards Institute: Performance Standards for Antimicrobial Susceptibility Testing M100-S20; Approved Standard-Twentieth Edition. Wayne, Pa.: CLSI; June 2010.
The compounds of the present invention were tested for antimicrobial activity. The Compounds 1-582 were run against Eschericia coli (E. coli) strain ATCC25922 and Compounds 320-582 were run against Staphylococcus aureus (S. aureus) 11540 strain using a standard microdilution assay to determine minimum inhibitory concentrations (MICs). […] It will be recognized by one skilled in the art that the compounds can be assessed against other bacterial organisms and that the presentation of data for activity against Eschericia coli and Staphylococcus aureus are illustrative and in no way is intended to limit the scope of the present invention. The compounds of the present invention can be assayed against a range of other microorganisms depending upon the performance activity desired to be gathered. Furthermore, the “+” and “−” representation and the selection of a cutoff value of 16 micrograms/mL is also illustrative and in no way is intended to limit the scope of the present invention.

Structure (SMILES)	MIC [1] [µg/mL]	MIC [2] [µg/mL]
C[C@H](N)CCCc1cc(Cl)c(F)c(-c2cc3cn(-c4ccc([C@@H](C)NCCCNC(=N)N)cc4)c(=O)nc3[nH]2)c1 [Compound 317]	< 16	
C[C@H](N)CCCc1cc(Cl)c(F)c(-c2cc3cn(-c4ccc([C@@H](C)NCCCN)cc4)c(=O)nc3[nH]2)c1 [Compound 318]	< 16	
C[C@H](NCCCNC(=N)N)c1ccc(-n2cc3cc(-c4cc(CCC[C@@H](N)CN)cc(Cl)c4F)[nH]c3nc2=O)cc1 [Compound 319]	< 16	
C[C@H](N)CCCc1cc(OC(F)(F)F)c(F)c(-c2cc3cn(-c4ccc([C@@H](C)NCCCN)cc4)c(=O)nc3[nH]2)c1 [Compound 320]	< 16	< 16
C[C@H](N)CCCc1cc(OC(F)(F)F)c(F)c(-c2cc3cn(-c4ccc([C@@H](C)NCCCNC(=N)N)cc4)c(=O)nc3[nH]2)c1 [Compound 321]	< 16	< 16
C[C@H](N)CCCc1cc(Cl)c(F)c(-c2cc3cn(-c4ccc(CNCC[C@H](CN5CCOCC5)NC(=N)N)cc4)c(=O)nc3[nH]2)c1 [Compound 322]	< 16	< 16
C[C@H](N)CCCc1cc(Cl)c(F)c(-c2cc3cn(-c4ccc([C@H](C)NCC[C@@H](Cn5cc(CN)nn5)NC(=N)N)cc4)c(=O)nc3[nH]2)c1 [Compound 323]	< 16	< 16
C[C@H](NCCCN)c1ccc(-n2cc3cc(-c4cc(CCC[C@H](C)NC(=N)N)cc(Cl)c4F)[nH]c3nc2=O)cc1 [Compound 324]	< 16	< 16
C[C@H](N)CCCc1cc(OC(F)(F)F)c(F)c(-c2cc3cn(-c4ccc([C@H](C)NCC[C@H](CCN)NC(=N)N)cc4)c(=O)nc3[nH]2)c1 [Compound 325]	< 16	< 16
C[C@H](NCCCNC(=N)N)c1ccc(-n2cc3cc(-c4cc(CCC[C@@H](N)CN=[N+]=[N-])cc(Cl)c4F)[nH]c3nc2=O)cc1 [Compound 326]	< 16	< 16
C[C@H](N)CCCc1cc(OC(F)(F)F)c(F)c(-c2cc3cn(-c4ccc([C@H](C)NCC[C@@H](Cn5cc(CN)nn5)NC(=N)N)cc4)c(=O)nc3[nH]2)c1 [Compound 327]	< 16	< 16
C[C@H](N)CCCc1cc(OC(F)(F)F)c(F)c(-c2cc3cn(-c4ccc(CNCC[C@H](CN5CCOCC5)NC(=N)N)cc4)c(=O)nc3[nH]2)c1 [Compound 328]	< 16	< 16
COC[C@@H](CCN[C@@H](C)c1ccc(-n2cc3cc(-c4cc(CCC[C@H](C)N)cc(OC(F)(F)F)c4F)[nH]c3nc2=O)cc1)NC(=N)N [Compound 329]	< 16	< 16
COC[C@@H](CCN[C@@H](C)c1ccc(-n2cc3cc(-c4cc(CCC[C@H](C)N)cc(Cl)c4F)[nH]c3nc2=O)cc1)NC(=N)N [Compound 330]	< 16	< 16
C[C@H](NCCCNC(=N)N)c1ccc(-n2cc3cc(-c4cc(CCC[C@@H](N)COC(=O)Cc5ccccc5)cc(Cl)c4F)[nH]c3nc2=O)cc1 [Compound 331]	< 16	< 16
C[C@H](N)CCCc1cc(Cl)c(F)c(-c2cc3cn(-c4ccc([C@H](C)NCC[C@H](CC#N)NC(=N)N)cc4)c(=O)nc3[nH]2)c1 [Compound 332]	< 16	< 16
C[C@H](N)CCCc1cc(OC(F)(F)F)c(F)c(-c2cc3cn(-c4ccc([C@H](C)NCC[C@H](CC#N)NC(=N)N)cc4)c(=O)nc3[nH]2)c1 [Compound 333]	< 16	< 16
C[C@H](N)CCCc1cc(Cl)c(F)c(-c2cc3cn(-c4ccc([C@H](C)NCC[C@H](CN5CCOCC5)NC(=N)N)cc4)c(=O)nc3[nH]2)c1 [Compound 334]	< 16	< 16
C[C@H](N)CCCc1cc(OC(F)(F)F)c(F)c(-c2cc3cn(-c4ccc([C@H](C)NCC[C@@H](CCN)NC(=N)N)cc4)c(=O)nc3[nH]2)c1 [Compound 335]	< 16	< 16
C=C[C@@H](C[C@H](C)NCc1ccc(-n2cc3cc(-c4cc(CCC[C@H](C)N)cc(Cl)c4F)[nH]c3nc2=O)cc1)NC(=N)N [Compound 336]	< 16	< 16
C=C[C@@H](C[C@H](C)NCc1ccc(-n2cc3cc(-c4cc(CCC[C@H](C)N)cc(OC(F)(F)F)c4F)[nH]c3nc2=O)cc1)NC(=N)N [Compound 337]	< 16	< 16

Structure (SMILES)	MIC [1] [µg/mL]	MIC [2] [µg/mL]
C=C[C@H](C[C@H](C)NCc1ccc(-n2cc3cc(-c4cc(CCC[C@H](C)N)cc(Cl)c4F)[nH]c3nc2=O)cc1)NC(=N)N [Compound 338]	< 16	< 16
C=C[C@H](C[C@H](C)NCc1ccc(-n2cc3cc(-c4cc(CCC[C@H](C)N)cc(OC(F)(F)F)c4F)[nH]c3nc2=O)cc1)NC(=N)N [Compound 339]	< 16	< 16
COC[C@@H](CCNC(=N)N)NCc1ccc(-n2cc3cc(-c4cc(CCC[C@H](C)N)cc(Cl)c4F)[nH]c3nc2=O)cc1 [Compound 340]	< 16	< 16
C[C@H](N)CCCc1cc(Cl)c(F)c(-c2cc3cn(-c4ccc([C@H](C)NCC[C@@H](CN5CCOCC5)NC(=N)N)cc4)c(=O)nc3[nH]2)c1 [Compound 341]	< 16	< 16
C[C@H](N)CC[C@H](N)c1cc(Cl)c(F)c(-c2cc3cn(-c4ccc([C@H](C)NCCCNC(=N)N)cc4)c(=O)nc3[nH]2)c1 [Compound 342]	< 16	< 16
C[C@H](NCCCNC(=N)N)c1ccc(-n2cc3cc(-c4cc([C@@H]5CC[C@H](C)N5)cc(Cl)c4F)[nH]c3nc2=O)cc1 [Compound 343]	< 16	< 16
C[C@H](N)CCCc1cc(OC(F)(F)F)c(F)c(-c2cc3cn(-c4ccc([C@H](C)NCC[C@H](CC(N)=O)NC(=N)N)cc4)c(=O)nc3[nH]2)c1 [Compound 344]	< 16	< 16
COC[C@H](CCN[C@@H](C)c1ccc(-n2cc3cc(-c4cc(CCC[C@H](C)N)cc(Cl)c4F)[nH]c3nc2=O)cc1)NC(=N)N [Compound 345]	< 16	< 16
COC[C@H](CCN[C@@H](C)c1ccc(-n2cc3cc(-c4cc(CCC[C@H](C)N)cc(OC(F)(F)F)c4F)[nH]c3nc2=O)cc1)NC(=N)N [Compound 346]	< 16	< 16
COCC[C@H](CCN[C@@H](C)c1ccc(-n2cc3cc(-c4cc(CCC[C@H](C)N)cc(Cl)c4F)[nH]c3nc2=O)cc1)NC(=N)N [Compound 347]	< 16	< 16
C[C@H](N)CCCc1cc(Cl)c(F)c(-c2cc3cn(-c4ccc([C@H](C)NCC[C@H](CC(N)=O)NC(=N)N)cc4)c(=O)nc3[nH]2)c1 [Compound 348]	< 16	< 16
C[C@H](N)CCCc1cc(Cl)c(F)c(-c2cc3cn(-c4ccc([C@H]5CC[C@H](CCNC(=N)N)N5)cc4)c(=O)nc3[nH]2)c1 [Compound 349]	< 16	< 16
COCC[C@H](CCN[C@@H](C)c1ccc(-n2cc3cc(-c4cc(CCC[C@H](C)N)cc(OC(F)(F)F)c4F)[nH]c3nc2=O)cc1)NC(=N)N [Compound 350]	< 16	< 16
COC[C@@H](CCNC(=N)N)NCc1ccc(-n2cc3cc(-c4cc(CCC[C@H](C)N)cc(OC(F)(F)F)c4F)[nH]c3nc2=O)cc1 [Compound 351]	< 16	< 16
C[C@H](N)CCCc1cc(OC(F)(F)F)c(F)c(-c2cc3cn(-c4ccc([C@H]5CC[C@H](CCNC(=N)N)N5)cc4)c(=O)nc3[nH]2)c1 [Compound 352]	< 16	< 16
C[C@H](N)CCCc1cc(Cl)c(F)c(-c2cc3cn(-c4ccc([C@@H]5COC[C@@H](CCNC(=N)N)N5)cc4)c(=O)nc3[nH]2)c1 [Compound 353]	< 16	< 16
C[C@H](N)CCCc1cc(Cl)c(F)c(-c2cc3cn(-c4ccc([C@@H]5COC[C@@H](CCN)N5)cc4)c(=O)nc3[nH]2)c1 [Compound 354]	< 16	< 16
COC[C@H](CCNC(=N)N)N[C@@H](C)c1ccc(-n2cc3cc(-c4cc(CCC[C@H](C)N)cc(Cl)c4F)[nH]c3nc2=O)cc1 [Compound 355]	< 16	< 16
COC(=O)[C@H](CCNC(=N)N)N[C@@H](C)c1ccc(-n2cc3cc(-c4cc(CCC[C@H](C)N)cc(Cl)c4F)[nH]c3nc2=O)cc1 [Compound 356]	< 16	< 16
C[C@H](N)CCCc1cc(OC(F)(F)F)c(F)c(-c2cc3cn(-c4ccc([C@@H]5COC[C@H](CCNC(=N)N)N5)cc4)c(=O)nc3[nH]2)c1 [Compound 357]	< 16	< 16
C[C@H](N)CCCc1cc(OC(F)(F)F)c(F)c(-c2cc3cn(-c4ccc([C@@H]5COC[C@H](CCN)N5)cc4)c(=O)nc3[nH]2)c1 [Compound 358]	< 16	< 16
